Data: patent US7612064B2, “Sulfopyrroles” (Takeda Pharmaceutical Company Limited, priority 2003, dated 2009)

Columns and labels:
[1] = system: Jurkat; experiment: MTS proliferation assay; assay type: cell-based, human; conditions: 72 h
How it was run: (§1)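 Four-point treatment (0.3–10 μM final) ran 72 h in complete medium, with the compound-containing addition holding no more than 5% DMSO. Metabolic activity was then developed with MTS reagent over 3 h and quantified by absorbance (492 nm).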

[2] = system: HeLa; experiment: MTS proliferation assay; assay type: cell-based, human; conditions: 72 h
How it was run: as §1

[3] = system: Jily; experiment: MTS proliferation assay; assay type: cell-based; conditions: 72 h
How it was run: as §1

[4] = system: MRC5; experiment: MTS proliferation assay; assay type: cell-based; conditions: MRC5, 72 h
How it was run: as §1

[5] = Hoechst 33342 nuclear staining; assay type: cell-based; conditions: for Hoechst 33342 nuclear staining score, H460: H460 cells; for Hoechst 33342 nuclear staining score, HeLa: HeLa cells; for Hoechst 33342 nuclear staining score, Jily: Jily cells; for Hoechst 33342 nuclear staining score, Jurkat: Jurkat cells; for Hoechst 33342 nuclear staining score, MRC5: MRC5 cells;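 on all read-outs here: apoptotic nuclei scored 0 none 1 weak under 50% of cells 2 strong over 50% of cells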
How it was run: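 After a further 30 min incubation, plates were inspected on a standard inverted fluorescence microscope. The fraction of apoptotic nuclei and other apoptosis-specific morphology were scored as 0 for no activity, 1 for weak activity in less than 50% of the cells, and 2 for strong activity in more than 50% of the cells.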

## COc1cc(-c2cc(-c3cccnc3)cn2S(=O)(=O)c2ccccc2)cc(OC)c1OC [Example 79]
[1]
  IC50: < 1 µM
[2]
  IC50: > 1 µM
[3]
  IC50: > 1 µM
[4]
  IC50: > 1 µM
[5]; conc 0.1
  Hoechst 33342 nuclear staining score, H460: 0
  Hoechst 33342 nuclear staining score, HeLa: 0
  Hoechst 33342 nuclear staining score, Jily: 0
  Hoechst 33342 nuclear staining score, Jurkat: 0
  Hoechst 33342 nuclear staining score, MRC5: 0
  Hoechst 33342 nuclear staining score, PBLs: 0
[5]; conc 0.3
  Hoechst 33342 nuclear staining score, H460: 0
  Hoechst 33342 nuclear staining score, HeLa: 0
  Hoechst 33342 nuclear staining score, Jily: 0
  Hoechst 33342 nuclear staining score, Jurkat: 0
  Hoechst 33342 nuclear staining score, MRC5: 0
  Hoechst 33342 nuclear staining score, PBLs: 0
[5]; conc 1
  Hoechst 33342 nuclear staining score, H460: 0
  Hoechst 33342 nuclear staining score, HeLa: 0
  Hoechst 33342 nuclear staining score, Jily: 0
  Hoechst 33342 nuclear staining score, Jurkat: 0
  Hoechst 33342 nuclear staining score, MRC5: 0
  Hoechst 33342 nuclear staining score, PBLs: 0
[5]; conc 3
  Hoechst 33342 nuclear staining score, H460: 0
  Hoechst 33342 nuclear staining score, HeLa: 0
  Hoechst 33342 nuclear staining score, Jily: 0
  Hoechst 33342 nuclear staining score, Jurkat: 0
  Hoechst 33342 nuclear staining score, MRC5: 0
  Hoechst 33342 nuclear staining score, PBLs: 0

## COc1ccc(S(=O)(=O)n2cc(CNc3ccc(N4CCOCC4)cc3)cc2-c2cccc(OC)c2)cc1 [Example 98]
[1]
  IC50: > 1 µM
[2]
  IC50: > 1 µM
[3]
  IC50: > 1 µM
[4]
  IC50: > 1 µM
[5]; conc 0.1
  Hoechst 33342 nuclear staining score, H460: 0
  Hoechst 33342 nuclear staining score, HeLa: 0
  Hoechst 33342 nuclear staining score, Jily: 0
  Hoechst 33342 nuclear staining score, Jurkat: 0
  Hoechst 33342 nuclear staining score, MRC5: 0
  Hoechst 33342 nuclear staining score, PBLs: 0
[5]; conc 0.3
  Hoechst 33342 nuclear staining score, H460: 0
  Hoechst 33342 nuclear staining score, HeLa: 0
  Hoechst 33342 nuclear staining score, Jily: 0
  Hoechst 33342 nuclear staining score, Jurkat: 0
  Hoechst 33342 nuclear staining score, MRC5: 0
  Hoechst 33342 nuclear staining score, PBLs: 0
[5]; conc 1
  Hoechst 33342 nuclear staining score, H460: 0
  Hoechst 33342 nuclear staining score, HeLa: 0
  Hoechst 33342 nuclear staining score, Jily: 0
  Hoechst 33342 nuclear staining score, Jurkat: 0
  Hoechst 33342 nuclear staining score, MRC5: 0
  Hoechst 33342 nuclear staining score, PBLs: 0
[5]; conc 3
  Hoechst 33342 nuclear staining score, H460: 0
  Hoechst 33342 nuclear staining score, HeLa: 0
  Hoechst 33342 nuclear staining score, Jily: 0
  Hoechst 33342 nuclear staining score, Jurkat: 1 (weak activity comprising less than 50% of the cells)
  Hoechst 33342 nuclear staining score, MRC5: 0
  Hoechst 33342 nuclear staining score, PBLs: 0

## COc1cc(-c2cc(-c3cccnc3)cn2S(=O)(=O)c2ccc(F)cc2)cc(OC)c1OC [Example 80]
[1]
  IC50: > 1 µM
[2]
  IC50: > 1 µM
[3]
  IC50: > 1 µM
[4]
  IC50: > 1 µM
[5]; conc 0.1
  Hoechst 33342 nuclear staining score, H460: 0
  Hoechst 33342 nuclear staining score, HeLa: 0
  Hoechst 33342 nuclear staining score, Jily: 0
  Hoechst 33342 nuclear staining score, Jurkat: 0
  Hoechst 33342 nuclear staining score, MRC5: 0
  Hoechst 33342 nuclear staining score, PBLs: 0
[5]; conc 0.3
  Hoechst 33342 nuclear staining score, H460: 0
  Hoechst 33342 nuclear staining score, HeLa: 0
  Hoechst 33342 nuclear staining score, Jily: 0
  Hoechst 33342 nuclear staining score, Jurkat: 0
  Hoechst 33342 nuclear staining score, MRC5: 0
  Hoechst 33342 nuclear staining score, PBLs: 0
[5]; conc 1
  Hoechst 33342 nuclear staining score, H460: 0
  Hoechst 33342 nuclear staining score, HeLa: 0
  Hoechst 33342 nuclear staining score, Jily: 0
  Hoechst 33342 nuclear staining score, Jurkat: 0
  Hoechst 33342 nuclear staining score, MRC5: 0
  Hoechst 33342 nuclear staining score, PBLs: 0
[5]; conc 3
  Hoechst 33342 nuclear staining score, H460: 0
  Hoechst 33342 nuclear staining score, HeLa: 0
  Hoechst 33342 nuclear staining score, Jily: 2 (strong activity comprising more than 50% of the cells)
  Hoechst 33342 nuclear staining score, Jurkat: 2 (strong activity comprising more than 50% of the cells)
  Hoechst 33342 nuclear staining score, MRC5: 0
  Hoechst 33342 nuclear staining score, PBLs: 0

## COc1cc(-c2cc(-c3cccnc3)cn2S(=O)(=O)c2ccc(N)cc2)cc(OC)c1OC [Example 93]
[1]
  IC50: > 1 µM
[2]
  IC50: > 1 µM
[3]
  IC50: > 1 µM
[4]
  IC50: > 1 µM
[5]; conc 0.1
  Hoechst 33342 nuclear staining score, H460: 0
  Hoechst 33342 nuclear staining score, HeLa: 0
  Hoechst 33342 nuclear staining score, Jily: 0
  Hoechst 33342 nuclear staining score, Jurkat: 0
  Hoechst 33342 nuclear staining score, MRC5: 0
  Hoechst 33342 nuclear staining score, PBLs: 0
[5]; conc 0.3
  Hoechst 33342 nuclear staining score, H460: 0
  Hoechst 33342 nuclear staining score, HeLa: 0
  Hoechst 33342 nuclear staining score, Jily: 0
  Hoechst 33342 nuclear staining score, Jurkat: 0
  Hoechst 33342 nuclear staining score, MRC5: 0
  Hoechst 33342 nuclear staining score, PBLs: 0
[5]; conc 1
  Hoechst 33342 nuclear staining score, H460: 0
  Hoechst 33342 nuclear staining score, HeLa: 0
  Hoechst 33342 nuclear staining score, Jily: 0
  Hoechst 33342 nuclear staining score, Jurkat: 0
  Hoechst 33342 nuclear staining score, MRC5: 0
  Hoechst 33342 nuclear staining score, PBLs: 0
[5]; conc 3
  Hoechst 33342 nuclear staining score, H460: 0
  Hoechst 33342 nuclear staining score, HeLa: 0
  Hoechst 33342 nuclear staining score, Jily: 0
  Hoechst 33342 nuclear staining score, Jurkat: 0
  Hoechst 33342 nuclear staining score, MRC5: 0
  Hoechst 33342 nuclear staining score, PBLs: 0

## COc1ccc(S(=O)(=O)n2cc(CNc3ccc(N4CCOCC4)cc3)cc2-c2ccccc2OC)cc1 [Example 97]
[1]
  IC50: > 1 µM
[2]
  IC50: > 1 µM
[3]
  IC50: > 1 µM
[4]
  IC50: > 1 µM
[5]; conc 0.1
  Hoechst 33342 nuclear staining score, H460: 0
  Hoechst 33342 nuclear staining score, HeLa: 0
  Hoechst 33342 nuclear staining score, Jily: 0
  Hoechst 33342 nuclear staining score, Jurkat: 0
  Hoechst 33342 nuclear staining score, MRC5: 0
  Hoechst 33342 nuclear staining score, PBLs: 0
[5]; conc 0.3
  Hoechst 33342 nuclear staining score, H460: 0
  Hoechst 33342 nuclear staining score, HeLa: 0
  Hoechst 33342 nuclear staining score, Jily: 0
  Hoechst 33342 nuclear staining score, Jurkat: 0
  Hoechst 33342 nuclear staining score, MRC5: 0
  Hoechst 33342 nuclear staining score, PBLs: 0
[5]; conc 1
  Hoechst 33342 nuclear staining score, H460: 0
  Hoechst 33342 nuclear staining score, HeLa: 0
  Hoechst 33342 nuclear staining score, Jily: 0
  Hoechst 33342 nuclear staining score, Jurkat: 0
  Hoechst 33342 nuclear staining score, MRC5: 0
  Hoechst 33342 nuclear staining score, PBLs: 0
[5]; conc 3
  Hoechst 33342 nuclear staining score, H460: 0
  Hoechst 33342 nuclear staining score, HeLa: 0
  Hoechst 33342 nuclear staining score, Jily: 0
  Hoechst 33342 nuclear staining score, Jurkat: 0
  Hoechst 33342 nuclear staining score, MRC5: 0
  Hoechst 33342 nuclear staining score, PBLs: 0
